Measured values: patent US11427606B2, “Azithromycin derivatives containing a phosphonium ion as anticancer agents” (Rising Tide Foundation, priority 2017, dated 2022)

Tested on: MDA-231 cancer cells
Experiment: Inhibition of proliferation assay: cell confluence (IncuCyte imaging)
Type: cell-based
Details: compound at 10 uM; MDA-231 cells; IncuCyte images every 3 h over 4-5 d; relative confluence normalised to time zero
Summary of the method: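 MDA-231 cancer cells from ATCC were grown in DMEM with 10% FBS, 2 mM Glutamax, 1 mM NEAA and 1 mM sodium pyruvate. An IncuCyte Live Cell Imaging microscope with a 10× objective imaged one field per well every 3 h for 4-5 d. Its built-in algorithm computed percent confluence as a proliferation surrogate, and values were normalised to each sample's time-zero value.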

Row | Molecule | % Confluence [%]
1 | CC[C@H]1OC(=O)[C@H](C)[C@@H](O[C@H]2C[C@@](C)(OC)[C@@H](O)[C@H](C)O2)[C@H](C)[C@@H](O[C@@H]2O[C@H](C)C[C@H](N(C)C)[C@H]2O)[C@](C)(O)C[C@@H](C)CN(C(=O)CCCCCCCCCCC[PH](CCOC)(c2ccccc2)c2ccccc2)[C@H](C)[C@@H](O)[C@]1(C)O [Example 34, {12-[(2R,3S,4R,5R,8R,10R,11R,12S,13S,14R)-11-{[(2S,3R,4S,6R)-4-(dimethylamino)-3-hydroxy-6-methyloxan-2-yl]oxy}-2-ethyl-3,4,10-trihydroxy-13-{[(2R,4R,5S,6S)-5-hydroxy-4-methoxy-4,6-dimethyloxan-2-yl]oxy}-3,5,8,10,12,14-hexamethyl-15-oxo-1-oxa-6-azacyclopentadecan-6-yl]-12-oxododecyl}(2-methoxyethyl)diphenylphosphonium chloride] | 5.4
2 | CC[C@H]1OC(=O)[C@H](C)[C@@H](O[C@H]2C[C@@](C)(OC)[C@@H](O)[C@H](C)O2)[C@H](C)[C@@H](O[C@@H]2O[C@H](C)C[C@H](N(C)C)[C@H]2O)[C@](C)(O)C[C@@H](C)CN(C(=O)CCCCCCCCCCC[PH](c2ccccc2)(c2ccccc2)C2CCOCC2)[C@H](C)[C@@H](O)[C@]1(C)O [Example 35, {12-[(2R,3S,4R,5R,8R,10R,11R,12S,13S,14R)-11-{[(2S,3R,4S,6R)-4-(dimethylamino)-3-hydroxy-6-methyloxan-2-yl]oxy}-2-ethyl-3,4,10-trihydroxy-13-{[(2R,4R,5S,6S)-5-hydroxy-4-methoxy-4,6-dimethyloxan-2-yl]oxy}-3,5,8,10,12,14-hexamethyl-15-oxo-1-oxa-6-azacyclopentadecan-6-yl]-12-oxododecyl}(oxan-4-yl)diphenylphosphonium chloride] | 97.2
3 | CC[C@H]1OC(=O)[C@H](C)[C@@H](O[C@H]2C[C@@](C)(OC)[C@@H](O)[C@H](C)O2)[C@H](C)[C@@H](O[C@@H]2O[C@H](C)C[C@H](N(C)C)[C@H]2OC(C)=O)[C@](C)(O)C[C@@H](C)CN(C)[C@H](C)[C@@H](OC(=O)NCCCCCCCCCC[P+](C)(C)c2ccccc2)[C@]1(C)O.[Br-] [Example 38, (2S,3R,4S,6R)-2-{[(2R,3R,4R,5R,8R,10R,11R,12S,13S,14R)-4-[({10-[dimethyl(phenyl)phosphoniumyl]decyl}carbamoyl)oxy]-2-ethyl-3,10-dihydroxy-13-{[(2R,4R,5S,6S)-5-hydroxy-4-methoxy-4,6-dimethyloxan-2-yl]oxy}-3,5,6,8,10,12,14-heptamethyl-15-oxo-1-oxa-6-azacyclopentadecan-11-yl]oxy}-4-(dimethylamino)-6-methyloxan-3-yl acetate bromide] | 135
4 | tris(4-chlorophenyl)({8-[(2R,3S,4R,5R,8R,10R,11R,12S,13S,14R)-11-{[(2S,3R,4S,6R)-4-(dimethylamino)-3-hydroxy-6-methyloxan-2-yl]oxy}-2-ethyl-3,4,10-trihydroxy-13-{[(2R,4R,5S,6S)-5-hydroxy-4-methoxy-4,6-dimethyloxan-2-yl]oxy}-3,5,8,10,12,14-hexamethyl-15-oxo-1-oxa-6-azacyclopentadecan-6-yl]-8-oxooctyl})phosphoniumhexafluorophosphate(V) [Example 4] | 87.7
